Data as given in ChEMBL document CHEMBL1201862, “PubChem BioAssay data set” (2004).
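A five-concentration, 48-hour dose response in 96-well plates underlies each endpoint, interpolated linearly between surrounding concentrations. GI50 = concentration required for 50% inhibition of growth.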 The source made the active and inactive calls. No stated cut-off is given here; in the data, active = GI50 up to about 1.1 µM and inactive = higher. Square brackets hold non-standard residues; d marks the D form. Peptide text beside a SMILES is read from it. * marks the point of attachment. ξ: configuration not given here. ξD = NC(CC(=O)O)C(=O)O; Ac3c = NC1(C(=O)O)CC1; Boc = CC(C)(C)OC(=O)*; OtBu = CC(C)(C)O*

Experiments:
Experiment in all cases: DTP human tumour cell line panel, 48 h
CAKI-1 = test system: CAKI-1
COLO 205 = test system: COLO 205
SK-MEL-5 = test system: SK-MEL-5
OVCAR-5 = test system: OVCAR-5
T47D = test system: T47D
HCT-116 = test system: HCT-116
UACC-62 = test system: UACC-62
M14 = test system: M14
K562 = test system: K562
LOX IMVI = test system: LOX IMVI
Malme-3M = test system: Malme-3M
OVCAR-4 = test system: OVCAR-4
RPMI-8226 = test system: RPMI-8226
OVCAR-3 = test system: OVCAR-3
NCI-H460 = test system: NCI-H460
HT-29 = test system: HT-29
IGROV-1 = test system: IGROV-1
U-251 = test system: U-251
OVCAR-8 = test system: OVCAR-8
SNB-19 = test system: SNB-19

SMILES	GI50 (CAKI-1)	GI50 (COLO 205)	GI50 (SK-MEL-5)	GI50 (OVCAR-5)	GI50 (T47D)	GI50 (HCT-116)	GI50 (UACC-62)	GI50 (M14)	GI50 (K562)	GI50 (LOX IMVI)	GI50 (Malme-3M)	GI50 (OVCAR-4)	GI50 (RPMI-8226)	GI50 (OVCAR-3)	GI50 (NCI-H460)	GI50 (HT-29)	GI50 (IGROV-1)	GI50 (U-251)	GI50 (OVCAR-8)	GI50 (SNB-19)
COC(=O)C1(NC(=O)C(CC(=O)OC(C)(C)C)NC(=O)OC(C)(C)C)CC1 (stereo not given) (Boc-[ξD](OtBu)-[Ac3c]-OMe)	> 100 µM (inactive)	> 100 µM (inactive)	> 100 µM (inactive)	> 100 µM (inactive)	> 100 µM (inactive)	> 100 µM (inactive)	1.19 µM (inactive)	> 100 µM (inactive)	> 100 µM (inactive)	> 100 µM (inactive)	> 100 µM (inactive)	> 100 µM (inactive)	> 100 µM (inactive)	> 100 µM (inactive)	> 100 µM (inactive)	> 100 µM (inactive)	> 100 µM (inactive)	> 100 µM (inactive)	> 100 µM (inactive)	> 100 µM (inactive)
NC(=O)NC(=O)c1cccc(NC(=O)CF)c1	> 100 µM (inactive)	> 100 µM (inactive)	> 100 µM (inactive)	> 100 µM (inactive)	> 100 µM (inactive)	> 100 µM (inactive)	> 100 µM (inactive)	41.4 µM (inactive)	> 100 µM (inactive)	> 100 µM (inactive)	> 100 µM (inactive)	> 100 µM (inactive)	> 100 µM (inactive)	> 100 µM (inactive)	> 100 µM (inactive)	> 100 µM (inactive)	> 100 µM (inactive)	> 100 µM (inactive)	> 100 µM (inactive)	> 100 µM (inactive)
CC(=O)NC1C(OCc2ccccc2)OC(CO)C(O)C1OCC(=O)N[C@@H](C)C(=O)N[C@H](CCC(=O)NCCCNc1ccc([N+](=O)[O-])c2[nH]c3ccccc3c(=O)c12)C(N)=O (stereo not given in full)	> 100 µM (inactive)	> 100 µM (inactive)	57.9 µM (inactive)	> 100 µM (inactive)	> 100 µM (inactive)	45.4 µM (inactive)	36.2 µM (inactive)	> 100 µM (inactive)	> 100 µM (inactive)	52.6 µM (inactive)	27.5 µM (inactive)	34 µM (inactive)	> 100 µM (inactive)	> 100 µM (inactive)	46.1 µM (inactive)	36.8 µM (inactive)	23.4 µM (inactive)	48.3 µM (inactive)	92.9 µM (inactive)	37.4 µM (inactive)
COc1cc(O)c2c(=O)cc(C3(OC(C)=O)C=CC(OC4OC(CO)C(O)C(O)C4O)C=C3)oc2c1 (stereo not given)	> 100 µM (inactive)	> 100 µM (inactive)	> 100 µM (inactive)	> 100 µM (inactive)	> 100 µM (inactive)	> 100 µM (inactive)	> 100 µM (inactive)	> 100 µM (inactive)	> 100 µM (inactive)	> 100 µM (inactive)	> 100 µM (inactive)	> 100 µM (inactive)	> 100 µM (inactive)	> 100 µM (inactive)	> 100 µM (inactive)	> 100 µM (inactive)	> 100 µM (inactive)	> 100 µM (inactive)	> 100 µM (inactive)	> 100 µM (inactive)
NC1CCCCC1.O=P(O)(O)C(O)/C=C/c1ccccc1 (stereo not given)	> 100 µM (inactive)	> 100 µM (inactive)	> 100 µM (inactive)	> 100 µM (inactive)	> 100 µM (inactive)	> 100 µM (inactive)	> 100 µM (inactive)	> 100 µM (inactive)	> 100 µM (inactive)	> 100 µM (inactive)	> 100 µM (inactive)	> 100 µM (inactive)	> 100 µM (inactive)	> 100 µM (inactive)	> 100 µM (inactive)	> 100 µM (inactive)	> 100 µM (inactive)	> 100 µM (inactive)	> 100 µM (inactive)	> 100 µM (inactive)
CCOC(=O)c1nc2c(nc1C(=O)OCC)C(=O)c1ccccc1C2=O	1 µM (active)	1.82 µM (inactive)	0.407 µM (active)	0.562 µM (active)	3.85 µM (inactive)	0.875 µM (active)	0.288 µM (active)	0.585 µM (active)	0.348 µM (active)	0.353 µM (active)	0.174 µM (active)	0.637 µM (active)	0.753 µM (active)	0.37 µM (active)	1.59 µM (inactive)	2.5 µM (inactive)	2.75 µM (inactive)	0.703 µM (active)	1.05 µM (active)	0.446 µM (active)
CCCCC(C(=O)NCCNC(=O)CCC(=O)N(C)O)C(=O)NCCNC(=O)CCC(=O)N(C)O	> 100 µM (inactive)	> 100 µM (inactive)	> 100 µM (inactive)	> 100 µM (inactive)	> 100 µM (inactive)	> 100 µM (inactive)	> 100 µM (inactive)	> 100 µM (inactive)	> 100 µM (inactive)	> 100 µM (inactive)	> 100 µM (inactive)	> 100 µM (inactive)	> 100 µM (inactive)	> 100 µM (inactive)	> 100 µM (inactive)	> 100 µM (inactive)	> 100 µM (inactive)	> 100 µM (inactive)	> 100 µM (inactive)	> 100 µM (inactive)
Cn1c2ccccc2c2c3c(c4c5ccccc5n(C5OC(CO)C(O)C(O)C5O)c4c21)C(=O)OC3=O (stereo not given)	> 100 µM (inactive)	> 100 µM (inactive)	> 100 µM (inactive)	> 100 µM (inactive)	52.2 µM (inactive)	> 100 µM (inactive)	> 100 µM (inactive)	> 100 µM (inactive)	> 100 µM (inactive)	> 100 µM (inactive)	> 100 µM (inactive)	> 100 µM (inactive)	> 100 µM (inactive)	> 100 µM (inactive)	> 100 µM (inactive)	> 100 µM (inactive)	> 100 µM (inactive)	> 100 µM (inactive)	> 100 µM (inactive)	> 100 µM (inactive)
C=C1C(=O)OC2C3OC(C)(CCC(O)C3COC(C)=O)CC(OC(=O)/C(=C/C)COC(C)=O)C12 (stereo not given)	0.166 µM (active)	0.082 µM (active)	0.684 µM (active)	0.586 µM (active)	0.142 µM (active)	0.0796 µM (active)	0.458 µM (active)	0.469 µM (active)	0.0775 µM (active)	0.163 µM (active)	0.0242 µM (active)	1.9 µM (inactive)	0.0698 µM (active)	0.212 µM (active)	0.752 µM (active)	0.154 µM (active)	0.738 µM (active)	1.22 µM (inactive)	0.532 µM (active)	5.32 µM (inactive)
CN(CCC(=O)O)S(=O)(=O)c1ccccc1	> 100 µM (inactive)	> 100 µM (inactive)	> 100 µM (inactive)	> 100 µM (inactive)	> 100 µM (inactive)	> 100 µM (inactive)	> 100 µM (inactive)	> 100 µM (inactive)	> 100 µM (inactive)	> 100 µM (inactive)	> 100 µM (inactive)	> 100 µM (inactive)	> 100 µM (inactive)	> 100 µM (inactive)	> 100 µM (inactive)	> 100 µM (inactive)	> 100 µM (inactive)	> 100 µM (inactive)	> 100 µM (inactive)	> 100 µM (inactive)
COC(=O)Nc1nc2cc(NS(=O)(=O)c3ccc(Cl)cc3)ccc2[nH]1	3.78 µM (inactive)	9.1 µM (inactive)	3.99 µM (inactive)	17.9 µM (inactive)	19.1 µM (inactive)	2.45 µM (inactive)	6.71 µM (inactive)	3.77 µM (inactive)	6.3 µM (inactive)	4.44 µM (inactive)	13.1 µM (inactive)	13 µM (inactive)	6.75 µM (inactive)	3.29 µM (inactive)	5.98 µM (inactive)	4.26 µM (inactive)	2.59 µM (inactive)	12.2 µM (inactive)	13 µM (inactive)	4.33 µM (inactive)
C=C[C@]1(C)C[C@@H](OC(=O)CO)[C@@]2(C)[C@H](C)CC[C@]3(CCC(=O)[C@H]32)[C@@H](C)[C@@H]1O	> 100 µM (inactive)	> 100 µM (inactive)	> 89.5 µM (inactive)	> 100 µM (inactive)	99.5 µM (inactive)	> 55.6 µM (inactive)	7.59 µM (inactive)	> 78.9 µM (inactive)	40 µM (inactive)	> 31.6 µM (inactive)	83.4 µM (inactive)	> 100 µM (inactive)	70.5 µM (inactive)	> 60.1 µM (inactive)	> 61.2 µM (inactive)	> 100 µM (inactive)	> 91.2 µM (inactive)	> 79.3 µM (inactive)	> 100 µM (inactive)	> 100 µM (inactive)
COc1cc(OC)c2nc(C)c3c(c2c1)SCC3	16.1 µM (inactive)	> 100 µM (inactive)	21.3 µM (inactive)	29.6 µM (inactive)	26.3 µM (inactive)	22.2 µM (inactive)	22.9 µM (inactive)	41.4 µM (inactive)	> 100 µM (inactive)	32.7 µM (inactive)	24.7 µM (inactive)	18.8 µM (inactive)	25.9 µM (inactive)	19.2 µM (inactive)	23.7 µM (inactive)	40.6 µM (inactive)	17.2 µM (inactive)	29.8 µM (inactive)	19 µM (inactive)	15.6 µM (inactive)
